Laboratory results taken from patent US20240018211A1, “EXOSOME COMPRISING OVEREXPRESSED FC RECEPTOR OR PORTION THEREOF, AND METHOD FOR PREPARING SAME” (EXOCOBIO INC, priority 2021, published 2024).

System: MDA-MB-231 human breast cancer cell line
Conditions: MDA-MB-231, 10,000 cells/well; same amount of doxorubicin; exosomes 2.56×10^11 particles/mL; FIG. 11

`COc1cccc2c1C(=O)c1c(O)c3c(c(O)c1C2=O)C[C@@](O)(C(=O)CO)C[C@@H]3O[C@H]1C[C@H](N)[C@H](O)[C@H](C)O1` [doxorubicin] was tested, and the “growth of the breast cancer cells” value was “inhibited the growth of the breast cancer cells”.
